Measured values taken from ChEMBL document CHEMBL3039007, “Structure-based identification of OATP1B1/3 inhibitors” (Mol Pharmacol, 2013).
Values joined by “and” are separate entries in the source; they are usually repeats but may differ in a detail not shown here. Equal entries are not always repeated.

Assays:
[1] = molecular target: T1, Solute carrier organic anion transporter family member 1B1 (Homo sapiens, UniProt Q9Y6L6)
T1 sequence (Q9Y6L6 whole entry): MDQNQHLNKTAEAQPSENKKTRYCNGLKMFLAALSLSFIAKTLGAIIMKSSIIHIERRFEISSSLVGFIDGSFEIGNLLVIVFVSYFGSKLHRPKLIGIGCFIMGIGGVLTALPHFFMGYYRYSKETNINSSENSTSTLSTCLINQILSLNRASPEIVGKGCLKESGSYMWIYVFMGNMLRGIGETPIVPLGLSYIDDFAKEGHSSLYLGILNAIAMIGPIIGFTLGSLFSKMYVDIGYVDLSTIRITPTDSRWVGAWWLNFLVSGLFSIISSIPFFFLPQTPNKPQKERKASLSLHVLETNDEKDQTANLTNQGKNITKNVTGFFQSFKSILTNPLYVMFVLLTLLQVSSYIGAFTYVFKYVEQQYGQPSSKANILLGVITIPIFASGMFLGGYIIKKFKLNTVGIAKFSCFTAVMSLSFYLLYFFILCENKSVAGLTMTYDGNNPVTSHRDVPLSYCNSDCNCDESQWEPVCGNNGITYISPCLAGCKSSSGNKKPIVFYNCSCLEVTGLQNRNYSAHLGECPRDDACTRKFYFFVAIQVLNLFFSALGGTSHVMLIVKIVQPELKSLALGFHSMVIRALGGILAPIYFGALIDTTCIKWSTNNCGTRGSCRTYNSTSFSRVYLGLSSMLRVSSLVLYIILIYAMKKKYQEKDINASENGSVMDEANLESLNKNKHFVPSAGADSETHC

[2] = molecular target: T2, Solute carrier organic anion transporter family member 1B3 (Homo sapiens, UniProt Q9NPD5)
T2 sequence (Q9NPD5 whole entry): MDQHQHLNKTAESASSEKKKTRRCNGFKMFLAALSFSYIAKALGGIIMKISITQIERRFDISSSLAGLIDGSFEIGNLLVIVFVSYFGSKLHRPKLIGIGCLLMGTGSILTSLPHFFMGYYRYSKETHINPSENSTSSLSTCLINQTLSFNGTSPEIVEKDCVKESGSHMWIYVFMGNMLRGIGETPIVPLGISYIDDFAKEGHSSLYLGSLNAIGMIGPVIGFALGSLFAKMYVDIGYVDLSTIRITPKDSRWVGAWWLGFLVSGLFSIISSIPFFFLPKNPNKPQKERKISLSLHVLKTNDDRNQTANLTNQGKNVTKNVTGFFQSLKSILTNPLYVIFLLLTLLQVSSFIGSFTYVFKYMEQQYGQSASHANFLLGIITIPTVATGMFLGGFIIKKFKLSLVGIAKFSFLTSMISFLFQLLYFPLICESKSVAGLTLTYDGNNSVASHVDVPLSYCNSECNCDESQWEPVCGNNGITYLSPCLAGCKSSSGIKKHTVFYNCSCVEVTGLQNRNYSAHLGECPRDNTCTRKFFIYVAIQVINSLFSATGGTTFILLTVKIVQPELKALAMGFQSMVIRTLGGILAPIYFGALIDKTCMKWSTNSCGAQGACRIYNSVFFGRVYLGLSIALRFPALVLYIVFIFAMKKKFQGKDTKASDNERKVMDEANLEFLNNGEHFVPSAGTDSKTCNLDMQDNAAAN

[3] = molecular target: T1, Solute carrier organic anion transporter family member 1B1; remark: listed apart in the source
[4] = molecular target: T2, Solute carrier organic anion transporter family member 1B3; conditions: chinese hamster, cho, 10 µM
[5] = molecular target: T2, Solute carrier organic anion transporter family member 1B3; remark: listed apart in the source
[6] = molecular target: T1, Solute carrier organic anion transporter family member 1B1; conditions: chinese hamster, cho, 10 µM

Row | SMILES | IC50 [1] | IC50 [2] | Ki [3] | residual activity [4] | Ki [5] | residual activity [6]
1 | CCOC(=O)CCC(=O)O[C@H]1[C@H](O[C@@H]2[C@@H](C)[C@H](O[C@H]3C[C@@](C)(OC)[C@@H](O)[C@H](C)O3)[C@@H](C)C(=O)O[C@H](CC)[C@@](C)(O)[C@H](O)[C@@H](C)C(=O)[C@H](C)C[C@@]2(C)O)O[C@H](C)C[C@@H]1N(C)C [ERYTHROMYCIN ETHYLSUCCINATE] | 3.02 µM | 2.09 µM | 1.67 µM | 30.5% | 1.61 µM | 3.592%
2 | CC1(C)[C@@H](O)C=C[C@]2(C)[C@H]3CC[C@@]4(C)[C@H](c5ccoc5)OC(=O)[C@H]5O[C@]54[C@]3(C)C(=O)C[C@@H]12 | 2.4 µM | 5.01 µM | 1.33 µM | 22.22% | 3.81 µM | 10.83%
3 | CC1(C)CC[C@]2(C(=O)O)CC[C@]3(C)C(=CC[C@@H]4[C@@]5(C)CC[C@H](O)[C@@](C)(CO)[C@@H]5CC[C@]43C)[C@@H]2C1 [HEDERAGENIN] | 3.8 µM | 0.891 µM | 2.11 µM | 18.59% | 0.68 µM | 40.18%
4 | N[C@@H](C(=O)O)[C@@H](O)[C@H](O)[C@H](O)CO [GLUCOSAMINIC ACID] | 11.7 µM | – | – | 25.61% | – | 63.53%
5 | CC[C@H]1OC(=O)[C@H](C)[C@@H](O[C@H]2C[C@@](C)(OC)[C@@H](O)[C@H](C)O2)[C@H](C)[C@@H](O[C@@H]2O[C@H](C)C[C@H](N(C)C)[C@H]2O)[C@](C)(OC)C[C@@H](C)C(=O)[C@H](C)[C@@H](O)[C@]1(C)O [CLARITHROMYCIN] | 3.09 µM | 3.31 µM | – | 80.47% | – | 56.72%
6 | O=C(O[C@@H]1Cc2c(O)cc(O)cc2O[C@@H]1c1ccc(O)c(O)c1)c1cc(O)c(O)c(O)c1 [EPICATECHIN GALLATE] | 3.8 µM | 4.47 µM | 2.07 µM | 25.25% | 3.46 µM | 46.4%
7 | COc1cc(C2Oc3cc([C@H]4Oc5cc(O)cc(O)c5C(=O)[C@@H]4O)ccc3OC2CO)ccc1O (stereo not given in full) [SILIBININ] | 6.17 µM | 4.27 µM | 3.37 µM | 46.89% | 3.27 µM | 54.77%
8 | Cc1cc2c(C(C)C)c(O)c(O)c(C=O)c2c(O)c1-c1c(C)cc2c(C(C)C)c(O)c(O)c(C=O)c2c1O [GOSSYPOL] | 3.24 µM | 4.57 µM | 1.78 µM | – | 3.47 µM | 24.45% and 68.48%
9 | CC(=O)O[C@@H]1C[C@H]2C(C)(C)[C@@H](O)CC[C@]2(C)[C@H]2CC[C@@]3(C)[C@H](c4ccoc4)OC(=O)[C@H]4O[C@]43[C@@]21C [beta-DIHYDROGEDUNOL] | 1.7 µM | 3.24 µM | – | 23.84% | – | 20.54%
10 | CC(C)C1=CC2=CC[C@@H]3[C@](C)(CCC[C@@]3(C)C(=O)O)[C@H]2CC1 [ABIETIC ACID] | 2.69 µM | 5.25 µM | 1.47 µM | 33.77% | 4.08 µM | 7.365%
11 | CC1(C)C(=O)[C@@H]2O[C@@H]2[C@]2(C)[C@H]3CC[C@@]4(C)[C@H](c5ccoc5)OC(=O)[C@H]5O[C@]54[C@]3(C)[C@H](O)C[C@@H]12 | 1.58 µM | 2.95 µM | – | 21.3% | – | 12.73%
12 | CC(=O)O[C@H]1C[C@@H](OC(C)=O)C(C)(C)[C@@H]2C[C@@H](O)[C@@]3(C)[C@H](CC[C@]4(C)[C@@H](c5ccoc5)OC(=O)[C@H]5O[C@@]534)[C@@]12C | 0.977 µM | 2.95 µM | 0.54 µM | 9.535% | 2.27 µM | 14.28%
13 | CCCCCc1c2c(cc(O)c1C(=O)O)OC(=O)c1c(cc(OC)cc1C(=O)CCCC)O2 [LOBARIC ACID] | 0.724 µM | 1.62 µM | 0.4 µM | 7.572% | 1.25 µM | 18.31%
14 | C/C=C(\C)C(=O)O[C@H]1[C@H](OC(C)=O)[C@@]2(CO)C(CC1(C)C)C1=CC[C@@H]3[C@@]4(C)CC[C@H](O[C@@H]5O[C@H](C(=O)O)[C@@H](O[C@@H]6O[C@H](CO)[C@@H](O)[C@H](O)[C@H]6O)[C@H](O)[C@H]5O[C@@H]5O[C@H](CO)[C@@H](O)[C@H](O)[C@H]5O)[C@H](CO)C4CC[C@@]3(C)[C@@]1(C)C[C@H]2O (stereo partly drawn) [beta-ESCIN] | 1.41 µM | 3.39 µM | 0.78 µM | 11.66% | 2.61 µM | 11.04%
15 | CCC(=O)O[C@H]1[C@H](O[C@@H]2[C@@H](C)[C@H](O[C@H]3C[C@@](C)(OC)[C@@H](O)[C@H](C)O3)[C@@H](C)C(=O)O[C@H](CC)[C@@](C)(O)[C@H](O)[C@@H](C)C(=O)[C@H](C)C[C@@]2(C)O)O[C@H](C)C[C@@H]1N(C)C.CCCCCCCCCCCCOS(=O)(=O)O [ERYTHROMYCIN ESTOLATE] | 4.37 µM | 3.09 µM | 2.41 µM | 7.433% | 2.35 µM | 6.903%
16 | CC(C)=CCC[C@]1(C)C=Cc2c(O)c3c(c(CC=C(C)C)c2O1)O[C@]12C(C[C@@H]4C[C@H]1C(C)(C)O[C@@]2(C/C=C(/C)C(=O)O)C4O)C3=O (stereo not given in full) | 2 µM | 2.82 µM | 1.1 µM | 4.414% | 2.16 µM | 12.48%
17 | CC(=O)Oc1c2c(c(CC=C(C)C)c3c1C(=O)C1=C[C@@H]4CC5C(C)(C)OC(C/C=C(\C)C(=O)O)(C4=O)[C@@]15O3)OC(C)(CCC=C(C)C)C=C2 (stereo not given in full) [ACETYL ISOGAMBOGIC ACID] | 4.07 µM | 5.37 µM | 2.24 µM | 30.34% | 4.17 µM | 10.38%
18 | COC(=O)c1c(OC)cc2c(c1C)Oc1c(Cl)c(O)c(Cl)c(C)c1C(=O)O2 [GANGALEOIDIN] | 0.102 µM | 2.63 µM | 0.06 µM | 15.01% | 2.02 µM | 4.093%
19 | CC(=O)O[C@@H]1C[C@@H]2C(C)(C)[C@H](O)C=C[C@@]2(C)[C@@H]2CC[C@@]3(C)C(=CC(=O)O[C@@H]3c3ccoc3)[C@@]12C | 2.19 µM | 3.72 µM | 1.21 µM | 23.16% | 2.89 µM | 6.132%
20 | Cc1ccc(C)c(OCCCC(C)(C)C(=O)O)c1 [GEMFIBROZIL] | 4.07 µM | 7.08 µM | – | 71.16% | – | 56.21%
21 | CC[C@H]1OC(=O)[C@H](C)C(=O)[C@H](C)[C@@H](O[C@@H]2O[C@H](C)C[C@H](N(C)C)[C@H]2O)[C@](C)(OC)C[C@@H](C)C(=O)[C@H](C)[C@H]2N(CCCCn3cnc(-c4cccnc4)c3)C(=O)O[C@]12C [TELITHROMYCIN] | 3.47 µM | 5.89 µM | – | 60.1% | – | 62.01%
22 | CCCCCN(CCCCC)C(=O)C(CCC(=O)[O-])NC(=O)c1ccc(Cl)c(Cl)c1.[Na+] (stereo not given) [LORGLUMIDE SODIUM] | – | – | 2.01 µM | 32.85% | 2.71 µM | 16.54%
23 | CC(=O)O[C@H]1CC[C@]2(C)[C@H]3C(=O)C=C4[C@@H]5[C@@H](C)[C@H](C)CC[C@]5(C(=O)O)CC[C@@]4(C)[C@]3(C)CC[C@H]2C1(C)C [11-OXOURSOLIC ACID ACETATE] | 11.2 µM | 11.5 µM | – | 5.189% | – | 19.79%
